Experiments:
nuclear factor-kappa B = experiment: Immunocytochemistry of nuclear factor-kappa B in ARPE-19 cells; format: cell-based, Human; settings: 2.5 mM, hypoxia
Method: (§1) Human retinal pigment epithelium cell line, ARPE-19, was purchased from American Type Culture Collection (Manassas, VA, USA). The ARPE-19 cells were maintained in RPMI1640 containing 10% fetal bovine serum (Life Technologies, Gaithersburg, MD, USA), 100 IU/ml penicillin, and 100 μg/ml streptomycin (Welgene, Daegu, South Korea).
(§2) ARPE-19 and SK-N-SH cells were fixed on bio-coated coverslips (BD bioscience, San Jose, CA, USA) by 4% PFA for 20 min and then incubated with the primary antibodies for 15 h. The primary antibodies were as follows: HIF-1a (1:300, BD Biosciences, San Jose, CA, USA); LDH-A (1:300, Santa Cruz Biotechnology, Santa Cruz, CA, USA); LDH-B (1:300, Santa Cruz Biotechnology, Santa Cruz, CA, USA); NF-κB (1:300, Santa Cruz Biotechnology, Santa Cruz, CA, USA); TLR-4 (1:300, Santa Cruz Biotechnology, Santa Cruz, CA, USA); apoE (1:200, Santa Cruz Biotechnology, Santa Cruz, CA, USA). After PBS wash, the cells were incubated with anti-mouse secondary biotinylated antibody (1:2000, Vector Laboratorie, Burlingame, CA, USA) and visualized with streptavidin conjugated to Fluorescein (Vector Laboratorie, Burlingame, CA, USA). […] Confocal fluorescence images were obtained with confocal laser scanning microscopy (LSCM, Nikon A1+, Tokyo, Japan) under a 60× oil immersion lens.

hypoxia-mediated factors = experiment: Brain CID in vitro experiment, Western blot in SK-N-SH cells; format: cell-based; settings: 2.5 mM; SK-N-SH cells (human neuroblastoma); normoxia and hypoxia
Method: as §1, with “Brain” for “retinal pigment epithelium”, “SK-N-SH,” for “ARPE-19,”, “SK-N-SH” for “ARPE-19”
To prepare whole cell lysate, cells were lysed with lysis buffer (1% NP-40, 0.25% sodium deoxycholate, 150 mM NaCl, 1 mM EDTA, 1% Triton X-100, 50 mM Tris-HCl (pH 7.4), 10% Glycerol) with protease inhibitor cocktail (Roche, Basel, Switzerland) and phosphatase inhibitors (NA3VO4 1 mM, NaF 100 mM). Then, protein concentration was measured using the Bicinchoninic acid (BCA) assay kit (Thermo Scientific, Waltham, MA). Whole cell or nuclear lysates were transferred onto polyvinylidene fluoride membranes (Merck Millipore, Billerica, MA, USA). After blocking in 5% non-fat milk (Bio-Rad, Hercules, CA, USA) for 1 h, the membranes were incubated overnight at 4° C. with primary antibody diluted in TBST containing 100 mM Tris-HCl (pH 7.5), 1.5 M NaCl, and 0.5% Tween-20 obtained from Sigma-Aldrich, to which 5% BSA and 0.1% sodium azide (Sigma-Aldrich) had been added. Specific primary antibodies to HIF-1α (1:1000), HIF-2α (1:1000), LDH-A (1:1000), LDH-B (1:1000), TLR-4 (1:1000), NF-κB (1:1000), VEGF (1:1000), α-tubulin (1:1000), Actin (1:1000), and GAPDH (1:5000). […]

[1] = test system: LPS-injected spinal cord of rats; experiment: Multiple sclerosis / spinal cord injury model, intraspinal injection of LPS; format: in vivo, Sprague-Dawley (SD) rats; settings: 2 mg/kg daily subcutaneous 21 days
Method: Animals. […] Eight-week old male Sprague-Dawley (SD) rats were obtained from Samtako Co. (Osan, Gyeonggi-do, Republic of Korea) and bred under specific-pathogen-free (SPF) conditions. All animals were maintained in a 12-hour light/dark cycle at 22-25° C. with free access to food and water.
Dissolve 1 mg of LPS powder in 1 ml of saline. Keep the tubes on ice if LPS is going to be used fresh. For long storage, use screw cap vials are preferred. The aliquots were stored at deep freezer (−20° C.). Calcium lactate was purchased from Sigma Aldrich (St. Louis, USA).
Intraspinal injection of LPS. The animals were placed in a small acrylic cage that was coupled with an anesthesia machine that allowed them to breathe freely under gaseous anesthesia (2% isoflurane, Spartanburg, SC, USA). After full anesthesia of an animal was achieved, it was positioned on an operating table (while maintaining the gaseous anesthesia). For intraspinal injection of LPS, the laminectomy site of rats was exposed. Two small holes, 1 mm apart, were made in the dura over the left dorsal column. A volume of 1 μl of LPS solution was carefully drawn up into a sterile Hamilton syringe, and the LPS solution was slowly injected into the spinal cord. The syringe maintained in place for an additional 2 min to prevent back-flux from the injection site. Then, the injection site was closed by surgical clips.
Immunohistochemistry. […]

[2] = test system: hypoxia inducible factor-1α (HIF-1α); experiment: Immunocytochemistry of HIF-1α in ARPE-19 cells; format: cell-based, Human; settings: 2.5 mM
Method: as §1, §2

toll like receptor 4 = experiment: Immunocytochemistry of toll like receptor 4 in ARPE-19 cells; format: cell-based, Human; settings: 2.5 mM, hypoxia
Method: as §1, §2

CC(O)C(=O)[O-].CC(O)C(=O)[O-].[Ca+2] (stereo not drawn) [calcium lactate]
inflammatory factor (nuclear factor-kappa B), immunocytochemistry (nuclear factor-kappa B): decreased
hypoxia-mediated factors, Western blot (hypoxia-mediated factors): decreased
demyelinated spinal cord [1]: Recovery
microglia infiltration (Iba-1) in spinal cord [1]: reduction
hypoxia inducible factor-1α (HIF-1α), immunocytochemistry [2]: decreased
inflammatory factor (toll like receptor 4), immunocytochemistry (toll like receptor 4): decreased

Reference: patent publication US12576107B2, “Methods of treating chronic inflammatory diseases” (METIMEDI PHARMACEUTICALS CO., LTD., priority 2018, dated 2026)
